Common to all, as to test: NCI-60 cell line screen, 48 h
Experiment [1] relates to HCT-15 colon.
In experiment [2] the test system is UACC-62 melanoma.
The test system of experiment [3] is SW-620 colon.
The subject of experiment [4] is MALME-3M melanoma.
Experiment [5] concerns U251 CNS.
Experiment [6] relates to IGROV1 ovarian.
Experiment [7] has as its system OVCAR-5 ovarian.
The subject of experiment [8] is ACHN renal.
Experiment [9] has as its system HL-60(TB) leukemia.
Experiment [10] has as its system A549 NSCLC.

GI50 and TGI data for 8 compounds are collected here from PubChem BioAssay (NCI).

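Following 48 hours of exposure in 96-well plates, responses at five concentrations were used to interpolate endpoints linearly. At the GI50, growth is halved. TGI: concentration producing complete growth inhibition.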

Regarding `O=C1/C(=C/c2ccc([N+](=O)[O-])s2)Oc2ccc(Cl)cc21`, the GI50 was 0.192 µM in experiment [1]; 0.271 µM in experiment [2]; 0.206 µM in [3]; 0.526 µM in [4]; 0.263 µM in experiment [5]; 0.311 µM in experiment [6]. In addition, the GI50 in [7] is 1.53 µM; in experiment [8] it was 0.234 µM; in [9] it was 0.423 µM; in experiment [10] it was 0.533 µM. For the same compound, the TGI in experiment [1] is 0.55 µM; in experiment [2], 0.771 µM; in experiment [3] it was 0.49 µM; in [4], 1.38 µM; in [5], 0.694 µM; in [6], 0.983 µM. In addition, the TGI in [7] stood at 3.01 µM; in experiment [8], 0.595 µM; in experiment [9], 2.15 µM; in experiment [10] it was 2.45 µM.

For `COC(=O)c1cc2c([nH]c3ccccc32)c(-c2nc3cc(N(S(=O)(=O)c4ccc(C)cc4)S(=O)(=O)c4ccc(C)cc4)c(OC)cc3cc2CO)n1`, the GI50 in experiment [1] was > 100 µM; in experiment [2] it was > 100 µM; in [3], > 100 µM; in experiment [4], > 100 µM; in experiment [5], 59.5 µM; in [6], > 100 µM. Besides, the GI50 in experiment [7] is > 100 µM; in experiment [8] it was > 100 µM; in [9] it was 31.7 µM; in experiment [10], > 100 µM. Besides, the TGI in experiment [1], in experiment [2], in experiment [3], in experiment [4], in experiment [5] and in [6] was > 100 µM throughout. The TGI is > 100 µM in experiment [7], > 100 µM in [8], 75.7 µM in experiment [9] and > 100 µM in experiment [10].

For the compound `CC(=O)NC1C(=O)CC(c2ccccc2)N(C)C1c1ccccc1` (stereo not given), the TGI in experiment [1], in experiment [2], in experiment [3], in [4], in experiment [5] and in experiment [6] was > 100 µM throughout. The TGI in experiment [7], in [8], in experiment [9] and in [10] was > 100 µM throughout.

As for `CCN(CC)CCCC(C)NC(=S)N/N=C(\C)c1ccccn1` (stereo not given), the GI50 is 2.49 µM in experiment [1]; 3.02 µM in [2]; 4.03 µM in experiment [3]; 3.96 µM in [4]; 2.78 µM in [5]; 5.64 µM in experiment [6]. The GI50 was 4.89 µM in experiment [7], 2.99 µM in [8], 1.39 µM in experiment [9] and 3.75 µM in experiment [10]. Also, the TGI in experiment [1], in experiment [2], in experiment [3], in experiment [4], in experiment [5] and in experiment [6] was > 100 µM in each case. Besides, the TGI was > 100 µM in experiment [7], > 100 µM in [8], 6.02 µM in experiment [9] and > 100 µM in [10].

Consider `N#Cc1ccccc1C#C/C=C\C#Cc1cnccn1`, for which the GI50 in experiment [1] was 20.6 µM; in experiment [2] it was 14.5 µM; in experiment [3], 5.85 µM; in experiment [4], 22.3 µM; in [5] it was 30.5 µM; in experiment [6], 38.1 µM. For the same compound, the GI50 in [7] is 6.09 µM; in [8], 32.9 µM; in [9], 3.23 µM; in experiment [10] it was 29.8 µM. In addition, the TGI is > 61 µM in experiment [1]; > 89.9 µM in experiment [2]; > 41.9 µM in experiment [3]; 81.4 µM in experiment [4]; > 100 µM in experiment [5]; > 100 µM in experiment [6]. Further, the TGI was > 49.9 µM in [7], 98.7 µM in experiment [8], > 24.1 µM in experiment [9] and > 95 µM in experiment [10].

For `Nc1cc2[nH]c(=O)c3cc(Cl)ccc3c2cc1Cl`, the TGI in experiment [1] is > 100 µM; in experiment [2], > 100 µM; in [3], > 100 µM; in experiment [4], 44.6 µM; in [5] it was 26.1 µM; in experiment [6], 23.5 µM. Besides, the TGI was > 100 µM in [7], 22.4 µM in experiment [8], > 100 µM in [9] and 44.7 µM in experiment [10].

With `COc1ccc(/C=C2\CC(C)CC3C2=NN(C(C)=O)C3c2ccc(OC)c(OC)c2)cc1OC` (stereo not given), the GI50 in experiment [1] is 15.4 µM; in experiment [2] it was 16.2 µM; in [3] it was 26.1 µM; in experiment [4] it was 20.1 µM; in experiment [5], 14.3 µM; in [6], 20.2 µM. The GI50 in experiment [7] is 17.5 µM; in experiment [8], 17.6 µM; in experiment [9], 12.6 µM; in [10], 18.7 µM. Further, the TGI in experiment [1] turned out to be 32.8 µM; in experiment [2] it was 33.3 µM; in [3], 67.1 µM; in [4], 36.3 µM; in experiment [5], 28 µM; in experiment [6] it was 50.6 µM. Also, the TGI was found to be 33.8 µM in experiment [7], 46.5 µM in [8], 52.1 µM in experiment [9] and 77.8 µM in experiment [10].

For the compound `N#CC1=C(N)Oc2c(ccc3ccccc23)C1c1ccccc1Cl` (stereo not given), the GI50 in [1] is 0.183 µM; in [2] it was 0.677 µM; in [3] it was 0.172 µM; in experiment [4], 0.617 µM; in experiment [5], 0.407 µM; in [6], 0.455 µM. Moreover, the GI50 in experiment [7] is 0.545 µM; in [8], 0.718 µM; in experiment [9], 0.27 µM; in [10], 0.476 µM. Moreover, the TGI amounted to 11.4 µM in experiment [1]; 17.7 µM in [2]; 14.7 µM in experiment [3]; 22.9 µM in experiment [4]; 17.1 µM in [5]; 15.4 µM in [6]. Also, the TGI in [7] was determined as 18.8 µM; in experiment [8], 19.6 µM; in experiment [9], 0.776 µM; in [10] it was 26.7 µM.
